Consider 15 compounds from ChEMBL document CHEMBL3991601, “The target landscape of clinical kinase drugs” (Science, 2017).

pKd: −log10 of the molar value. Activity calls are given as the source filed them. Rule as the data show it, for most assays here: actives have a measured Kd and inactives only a lower limit. Bounds are passed on as bounds.

The target of assay [1] is Casein kinase II subunit alpha' (Homo sapiens, UniProt P19784).
Assay [2] deals with T1, Activin receptor type-1 (Homo sapiens, UniProt Q04771).
T1 sequence (Q04771 whole entry): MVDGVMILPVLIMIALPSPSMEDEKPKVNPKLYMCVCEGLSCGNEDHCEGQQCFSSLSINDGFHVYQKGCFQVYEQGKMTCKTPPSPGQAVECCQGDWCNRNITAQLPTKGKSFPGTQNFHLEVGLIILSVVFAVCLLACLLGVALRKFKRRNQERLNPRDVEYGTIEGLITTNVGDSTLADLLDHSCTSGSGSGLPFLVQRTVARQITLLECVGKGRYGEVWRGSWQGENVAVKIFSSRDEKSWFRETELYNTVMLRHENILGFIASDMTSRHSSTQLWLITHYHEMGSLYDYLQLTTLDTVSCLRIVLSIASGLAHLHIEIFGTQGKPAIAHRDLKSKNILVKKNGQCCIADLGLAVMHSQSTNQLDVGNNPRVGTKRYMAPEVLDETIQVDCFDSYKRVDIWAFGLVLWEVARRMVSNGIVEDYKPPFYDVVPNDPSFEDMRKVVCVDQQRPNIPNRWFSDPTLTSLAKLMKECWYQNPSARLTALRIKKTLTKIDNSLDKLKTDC

For assay [3], the target named is T2, Bone morphogenetic protein receptor type-2 (Homo sapiens, UniProt Q13873).
T2 sequence (Q13873 whole entry): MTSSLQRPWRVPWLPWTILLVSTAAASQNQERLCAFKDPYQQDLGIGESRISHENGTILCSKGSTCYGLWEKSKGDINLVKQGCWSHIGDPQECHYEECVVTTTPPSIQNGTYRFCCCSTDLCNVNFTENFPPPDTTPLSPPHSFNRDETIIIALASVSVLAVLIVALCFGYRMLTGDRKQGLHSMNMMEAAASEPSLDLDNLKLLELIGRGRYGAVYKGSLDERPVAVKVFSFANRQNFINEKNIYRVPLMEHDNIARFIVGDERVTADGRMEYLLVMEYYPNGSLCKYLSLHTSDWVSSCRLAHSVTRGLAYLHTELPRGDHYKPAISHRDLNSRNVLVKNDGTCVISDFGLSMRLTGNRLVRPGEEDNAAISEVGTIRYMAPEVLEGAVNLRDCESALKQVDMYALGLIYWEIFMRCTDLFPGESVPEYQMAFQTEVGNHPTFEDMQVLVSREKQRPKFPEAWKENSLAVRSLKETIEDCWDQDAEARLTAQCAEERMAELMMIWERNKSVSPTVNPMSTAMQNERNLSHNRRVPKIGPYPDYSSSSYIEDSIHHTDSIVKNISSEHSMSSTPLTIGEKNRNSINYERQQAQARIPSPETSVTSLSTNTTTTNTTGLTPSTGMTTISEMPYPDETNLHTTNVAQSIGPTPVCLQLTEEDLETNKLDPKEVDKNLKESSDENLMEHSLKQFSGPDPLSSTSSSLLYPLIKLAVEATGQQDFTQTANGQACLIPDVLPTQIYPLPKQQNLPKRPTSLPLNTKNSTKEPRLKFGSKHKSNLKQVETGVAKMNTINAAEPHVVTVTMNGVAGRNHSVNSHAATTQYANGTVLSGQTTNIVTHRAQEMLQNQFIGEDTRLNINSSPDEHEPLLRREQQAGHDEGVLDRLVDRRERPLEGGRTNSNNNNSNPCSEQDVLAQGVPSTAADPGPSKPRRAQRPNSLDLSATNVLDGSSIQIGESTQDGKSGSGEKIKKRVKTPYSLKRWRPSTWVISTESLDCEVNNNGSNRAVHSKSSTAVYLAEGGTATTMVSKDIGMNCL

The target in assay [4] is Serine/threonine-protein kinase MRCK beta (Homo sapiens, UniProt Q9Y5S2).
Chain of Serine/threonine-protein kinase MRCK beta (Q9Y5S2 whole entry): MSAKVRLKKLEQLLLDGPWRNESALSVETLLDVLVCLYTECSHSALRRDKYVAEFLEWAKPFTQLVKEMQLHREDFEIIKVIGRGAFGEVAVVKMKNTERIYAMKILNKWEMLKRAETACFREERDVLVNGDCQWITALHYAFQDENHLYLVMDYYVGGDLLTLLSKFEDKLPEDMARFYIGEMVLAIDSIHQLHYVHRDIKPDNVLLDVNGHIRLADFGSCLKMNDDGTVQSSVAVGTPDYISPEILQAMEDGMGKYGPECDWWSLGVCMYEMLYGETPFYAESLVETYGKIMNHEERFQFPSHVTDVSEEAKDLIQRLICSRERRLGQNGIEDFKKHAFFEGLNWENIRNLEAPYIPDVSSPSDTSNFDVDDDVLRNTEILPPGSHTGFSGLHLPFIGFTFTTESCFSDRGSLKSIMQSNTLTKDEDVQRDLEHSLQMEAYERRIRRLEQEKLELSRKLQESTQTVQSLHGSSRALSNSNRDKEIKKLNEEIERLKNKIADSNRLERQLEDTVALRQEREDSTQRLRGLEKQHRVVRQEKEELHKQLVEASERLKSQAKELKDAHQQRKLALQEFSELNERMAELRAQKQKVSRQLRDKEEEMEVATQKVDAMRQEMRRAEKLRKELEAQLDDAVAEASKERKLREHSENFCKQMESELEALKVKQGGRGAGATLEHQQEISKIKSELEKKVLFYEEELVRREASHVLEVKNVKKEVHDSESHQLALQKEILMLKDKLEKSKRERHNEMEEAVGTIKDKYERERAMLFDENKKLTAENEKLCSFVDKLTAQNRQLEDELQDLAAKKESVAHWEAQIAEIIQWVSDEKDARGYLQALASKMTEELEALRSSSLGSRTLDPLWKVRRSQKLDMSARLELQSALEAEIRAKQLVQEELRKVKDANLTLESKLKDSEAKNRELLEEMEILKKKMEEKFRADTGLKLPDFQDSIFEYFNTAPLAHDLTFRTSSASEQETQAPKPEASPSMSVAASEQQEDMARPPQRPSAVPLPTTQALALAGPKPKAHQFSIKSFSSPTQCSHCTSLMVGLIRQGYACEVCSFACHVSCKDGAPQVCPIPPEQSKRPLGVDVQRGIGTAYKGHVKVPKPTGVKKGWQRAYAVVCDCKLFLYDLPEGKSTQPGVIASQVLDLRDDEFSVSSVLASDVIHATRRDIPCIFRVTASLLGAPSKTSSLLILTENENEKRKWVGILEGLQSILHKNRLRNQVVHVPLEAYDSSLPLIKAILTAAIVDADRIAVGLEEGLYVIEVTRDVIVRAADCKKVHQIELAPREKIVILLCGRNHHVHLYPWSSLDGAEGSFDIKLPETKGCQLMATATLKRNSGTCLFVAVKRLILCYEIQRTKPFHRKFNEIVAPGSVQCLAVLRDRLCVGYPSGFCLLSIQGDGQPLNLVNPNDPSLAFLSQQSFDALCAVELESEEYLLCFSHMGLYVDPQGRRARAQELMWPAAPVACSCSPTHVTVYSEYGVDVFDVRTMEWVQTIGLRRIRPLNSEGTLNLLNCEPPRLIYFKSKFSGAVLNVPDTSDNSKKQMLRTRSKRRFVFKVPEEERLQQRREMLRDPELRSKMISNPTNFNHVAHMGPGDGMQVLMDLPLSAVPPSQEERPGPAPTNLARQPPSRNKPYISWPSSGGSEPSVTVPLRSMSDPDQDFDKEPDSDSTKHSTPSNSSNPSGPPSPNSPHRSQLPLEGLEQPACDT
For assay [5], the target named is Midasin (Homo sapiens, UniProt Q9NU22).
The target in assay [6] is T3, AarF domain-containing protein kinase 1 (Homo sapiens, UniProt Q86TW2).
T3 sequence (Q86TW2 whole entry): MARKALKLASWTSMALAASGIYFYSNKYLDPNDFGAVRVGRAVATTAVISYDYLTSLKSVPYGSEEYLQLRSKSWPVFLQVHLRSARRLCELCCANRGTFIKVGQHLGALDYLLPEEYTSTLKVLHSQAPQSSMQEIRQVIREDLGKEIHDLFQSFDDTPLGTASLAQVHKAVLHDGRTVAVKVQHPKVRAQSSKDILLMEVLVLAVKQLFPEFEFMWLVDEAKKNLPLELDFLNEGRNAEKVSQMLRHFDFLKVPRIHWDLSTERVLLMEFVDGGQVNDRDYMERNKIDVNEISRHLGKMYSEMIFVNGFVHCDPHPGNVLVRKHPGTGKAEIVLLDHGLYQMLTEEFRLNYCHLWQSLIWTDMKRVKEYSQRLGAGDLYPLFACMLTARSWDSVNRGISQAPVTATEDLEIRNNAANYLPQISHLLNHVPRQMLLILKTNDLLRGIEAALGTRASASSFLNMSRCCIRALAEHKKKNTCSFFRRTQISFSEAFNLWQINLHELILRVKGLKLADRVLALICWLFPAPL

For assay [7], the target named is Glycogen synthase kinase-3 alpha (Homo sapiens, UniProt P49840).
Chain of Glycogen synthase kinase-3 alpha (P49840 whole entry): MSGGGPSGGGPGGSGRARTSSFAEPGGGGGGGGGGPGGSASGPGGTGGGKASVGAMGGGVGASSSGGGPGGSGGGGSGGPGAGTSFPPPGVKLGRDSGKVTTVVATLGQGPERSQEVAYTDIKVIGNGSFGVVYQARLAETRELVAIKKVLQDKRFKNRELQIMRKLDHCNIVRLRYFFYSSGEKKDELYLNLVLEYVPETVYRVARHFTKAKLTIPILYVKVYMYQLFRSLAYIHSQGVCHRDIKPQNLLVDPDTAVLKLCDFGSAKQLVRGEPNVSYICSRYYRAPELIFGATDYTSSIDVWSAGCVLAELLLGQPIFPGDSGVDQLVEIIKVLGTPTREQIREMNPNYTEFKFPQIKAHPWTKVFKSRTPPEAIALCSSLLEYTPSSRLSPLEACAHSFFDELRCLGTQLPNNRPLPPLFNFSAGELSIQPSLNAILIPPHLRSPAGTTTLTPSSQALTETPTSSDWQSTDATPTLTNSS
Assay [8] deals with Serine/threonine-protein kinase 16 (Homo sapiens, UniProt O75716).
Chain of Serine/threonine-protein kinase 16 (O75716 whole entry): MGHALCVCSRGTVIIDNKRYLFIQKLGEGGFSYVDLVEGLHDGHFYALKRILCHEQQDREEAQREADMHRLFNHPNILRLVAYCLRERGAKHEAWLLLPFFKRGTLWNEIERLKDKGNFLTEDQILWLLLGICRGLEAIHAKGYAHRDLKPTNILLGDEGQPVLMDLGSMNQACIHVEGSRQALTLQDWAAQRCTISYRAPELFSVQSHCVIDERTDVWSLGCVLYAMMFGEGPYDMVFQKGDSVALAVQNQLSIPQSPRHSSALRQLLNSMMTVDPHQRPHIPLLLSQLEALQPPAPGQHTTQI
For assay [9], the target named is Ephrin type-A receptor 4 (Homo sapiens, UniProt P54764).
Chain of Ephrin type-A receptor 4 (P54764 whole entry): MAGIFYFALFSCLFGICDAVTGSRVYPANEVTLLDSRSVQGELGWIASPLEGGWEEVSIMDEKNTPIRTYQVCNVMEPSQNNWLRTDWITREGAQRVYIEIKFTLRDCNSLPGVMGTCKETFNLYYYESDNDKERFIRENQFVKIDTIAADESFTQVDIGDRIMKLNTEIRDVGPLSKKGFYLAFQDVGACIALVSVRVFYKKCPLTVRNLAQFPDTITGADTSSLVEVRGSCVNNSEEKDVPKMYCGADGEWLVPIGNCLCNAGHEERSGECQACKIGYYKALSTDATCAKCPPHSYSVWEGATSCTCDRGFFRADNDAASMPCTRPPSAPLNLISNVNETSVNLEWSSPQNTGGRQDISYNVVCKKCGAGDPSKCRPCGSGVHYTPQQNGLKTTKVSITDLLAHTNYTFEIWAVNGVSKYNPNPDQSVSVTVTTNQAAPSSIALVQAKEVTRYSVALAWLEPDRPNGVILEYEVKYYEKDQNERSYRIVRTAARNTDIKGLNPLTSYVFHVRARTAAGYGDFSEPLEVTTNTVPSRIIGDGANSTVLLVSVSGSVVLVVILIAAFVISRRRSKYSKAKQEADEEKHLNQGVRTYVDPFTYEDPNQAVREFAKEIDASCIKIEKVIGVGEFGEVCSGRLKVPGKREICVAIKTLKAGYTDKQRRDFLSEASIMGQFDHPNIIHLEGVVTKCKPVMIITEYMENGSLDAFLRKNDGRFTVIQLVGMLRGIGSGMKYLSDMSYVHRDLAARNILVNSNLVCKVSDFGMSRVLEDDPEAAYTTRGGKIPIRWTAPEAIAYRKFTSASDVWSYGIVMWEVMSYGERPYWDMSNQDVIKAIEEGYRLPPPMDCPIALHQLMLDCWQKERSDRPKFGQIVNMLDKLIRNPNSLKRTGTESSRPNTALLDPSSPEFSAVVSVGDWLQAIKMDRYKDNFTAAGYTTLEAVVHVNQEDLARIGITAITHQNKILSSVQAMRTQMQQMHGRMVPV
Assay [10] has as its target T4, Serine/threonine-protein kinase ULK3 (Homo sapiens, UniProt Q6PHR2).
T4 sequence (Q6PHR2 whole entry): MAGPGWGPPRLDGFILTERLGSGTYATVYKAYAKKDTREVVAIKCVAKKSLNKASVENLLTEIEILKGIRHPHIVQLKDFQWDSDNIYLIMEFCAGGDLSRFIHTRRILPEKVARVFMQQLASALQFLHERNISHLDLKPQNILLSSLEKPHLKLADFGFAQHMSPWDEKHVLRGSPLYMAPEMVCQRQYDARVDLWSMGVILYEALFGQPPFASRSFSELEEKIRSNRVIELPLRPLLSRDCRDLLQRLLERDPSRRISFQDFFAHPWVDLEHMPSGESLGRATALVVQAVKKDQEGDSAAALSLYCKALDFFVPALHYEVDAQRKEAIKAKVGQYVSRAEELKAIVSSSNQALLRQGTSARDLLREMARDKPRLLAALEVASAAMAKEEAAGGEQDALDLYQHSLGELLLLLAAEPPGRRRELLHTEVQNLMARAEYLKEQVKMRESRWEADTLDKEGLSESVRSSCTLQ
Also: in the data inactive means no Kd found up to 30 µM.

Chain of Casein kinase II subunit alpha' (P19784 whole entry): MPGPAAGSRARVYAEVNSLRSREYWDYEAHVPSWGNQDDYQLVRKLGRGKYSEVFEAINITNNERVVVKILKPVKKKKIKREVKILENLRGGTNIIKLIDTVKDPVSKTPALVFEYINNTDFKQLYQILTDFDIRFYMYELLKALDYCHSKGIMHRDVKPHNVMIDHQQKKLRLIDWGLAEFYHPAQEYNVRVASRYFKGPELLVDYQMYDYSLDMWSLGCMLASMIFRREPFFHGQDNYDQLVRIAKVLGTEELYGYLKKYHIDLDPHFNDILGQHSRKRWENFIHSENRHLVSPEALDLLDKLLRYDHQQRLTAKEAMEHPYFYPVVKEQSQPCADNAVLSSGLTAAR

What is called Kd is the equilibrium constant for the complex coming apart. Take `CC(=O)c1cnc2ccc(-c3cc(Cl)c(O)c(Cl)c3)nc2c1N[C@H]1CC[C@H](CN(C)C)CC1`: the Kd was 0.01 µM (active) in assay [1]; 0.222 µM (active) in [2]; > 30 µM (inactive) in [3]; > 30 µM (inactive) in assay [4]; > 30 µM (inactive) in [5]; > 30 µM (inactive) in assay [6]. For the same compound, the Kd in assay [7] is 0.087 µM (active).
Consider `COc1cc(Nc2ncc3c(n2)-c2ccc(Cl)cc2C(c2c(F)cccc2OC)=NC3)ccc1C(=O)O` [ALISERTIB], for which the Kd in assay [2], in assay [3], in assay [8], in assay [4], in [5] and in assay [6] was > 30 µM (inactive) each time.
In the case of `O=C(Nc1c[nH]nc1-c1nc2cc(CN3CCOCC3)ccc2[nH]1)NC1CC1` [AT-9283], the Kd was 0.065 µM (active) in assay [1]; 0.078 µM (active) in [2]; 43.9 µM (active) in assay [9]; 0.043 µM (active) in [3]; 1.28 µM (active) in assay [8]; > 30 µM (inactive) in assay [4]. Further, the Kd is > 30 µM (inactive) in assay [5], 0.559 µM (active) in assay [6] and 0.006 µM (active) in [7].
Regarding `CNC(=O)c1ccccc1Sc1ccc2c(/C=C/c3ccccn3)n[nH]c2c1` [AXITINIB], the Kd in assay [5] and in assay [6] was > 30 µM (inactive) throughout.
By pKd is commonly meant the Kd on a negative log10 scale, so that one unit is a factor of ten. A lower pKd goes with a large Kd. For `CC(C)(C)c1nc(-c2cccc(NS(=O)(=O)c3c(F)cccc3F)c2F)c(-c2ccnc(N)n2)s1` [DABRAFENIB], in [10], the pKd was 5.83. For the same compound, the Kd in assay [9], in assay [3], in assay [8], in assay [4], in assay [5] and in assay [6] was > 30 µM (inactive) throughout.
As to `Cn1cc(C2=C(c3cn(C4CCN(Cc5ccccn5)CC4)c4ccccc34)C(=O)NC2=O)c2ccccc21` [ENZASTAURIN], the Kd in assay [5] and in assay [6] was > 30 µM (inactive) throughout.
On to `C[C@@H](Oc1cc(-n2cnc3ccc(CN4CCN(C)CC4)cc32)sc1C(N)=O)c1ccccc1C(F)(F)F` [GSK-461364], for which the Kd in [5] and in assay [6] was > 30 µM (inactive) throughout.
`CCn1cc(-c2ccnc3[nH]c(-c4cccc(CN(C)C)c4)cc23)c(-c2ccc(NC(=O)N(C)C)cc2)n1` [GSK-1070916]: the Kd in assay [10], in [1], in assay [9], in assay [3], in [8] and in [4] was > 30 µM (inactive) throughout. Further, the Kd in assay [5] was > 30 µM (inactive); in [6], 22.7 µM (active); in [7], > 30 µM (inactive).
Consider `O=C(Nc1cc(C(F)(F)F)cc(C(F)(F)F)c1)c1cc(Cl)ccc1O` [IMD-0354], for which the Kd in assay [10], in [1], in [2], in assay [9], in [3] and in [8] was > 30 µM (inactive) throughout. In addition, the Kd in assay [4], in assay [5] and in [6] was > 30 µM (inactive) in each case.
`Cc1[nH]c(/C=C2\C(=O)Nc3ccccc32)c(C)c1CCC(=O)O` [ORANTINIB]: the Kd in assay [10] was 1.46 µM (active); in assay [1] it was 2.1 µM (active); in assay [2], > 30 µM (inactive); in assay [9], > 30 µM (inactive); in assay [3], 0.019 µM (active); in [4], > 30 µM (inactive). The Kd in assay [5] and in assay [6] was > 30 µM (inactive) throughout.
Regarding `NC(=O)c1c(OCc2c(F)cc(Br)cc2F)nsc1NC(=O)NCCCCN1CCCC1` [OSI-632], the Kd in assay [10], in [1], in assay [9], in assay [3], in assay [8] and in [4] was > 30 µM (inactive) each time. For the same compound, the Kd was > 30 µM (inactive) in [5] and 0.281 µM (active) in assay [6].
As to `CC(=O)NCC(=O)N1[C@@H]2CC[C@H]1c1ccc(Nc3ncc(C(F)(F)F)c(NC4CCC4)n3)cc12` [PF-03814735], the Kd was 0.019 µM (active) in [10]; 2.64 µM (active) in assay [1]; > 30 µM (inactive) in assay [9]; > 30 µM (inactive) in assay [4]; > 30 µM (inactive) in [5]; > 30 µM (inactive) in assay [6]. For the same compound, in assay [3], the pKd is 8.10.
`CNC(=O)c1cc(Oc2ccc(NC(=O)Nc3cc(C(C)(C)C)nn3-c3ccc4ncccc4c3)c(F)c2)ccn1` [REBASTINIB]: the Kd in [10], in assay [1], in assay [2], in [9], in [3] and in [4] was > 30 µM (inactive) each time. The Kd in assay [5], in [6] and in assay [7] was > 30 µM (inactive) in each case.
As to `O=C(NOCCO)c1cc(CN2OCCCC2=O)c(F)c(F)c1Nc1ccc(I)cc1F` [RO-4987655], the Kd in [5] and in [6] was > 30 µM (inactive) throughout.
For the compound `N#CC[C@H](C1CCCC1)n1cc(-c2ncnc3[nH]ccc23)cn1` [RUXOLITINIB], the Kd in assay [5] and in [6] was > 30 µM (inactive) each time.
